Assay results reported in PMC6274786 (International Journal of Molecular Sciences, 2018).
“Also recorded” adds a separate entry of the source.

Experiments:
PTZ-induced seizure = assay: Pentylenetetrazole (PTZ)-induced seizure; format: in vivo, Wistar rats
Experimental: (§1) In this study and according to previously used protocols, two chemical agents have been used to induce seizures, namely pentylenetetrazole (PTZ, 60 mg/kg, i.p.) and strychnine (STR, 3.5 mg/kg, i.p.). PTZ 60 mg/kg or STR 3.5 mg/kg were administered i.p. to all groups of seven rats (n = 7), that is, animals pretreated with vehicle or test compounds 1–16. Vehicle, VPA (300 mg/kg, i.p.), [26, 47, 48, 49] or test compounds 1–16 (10 mg/kg, i.p.) were systemically administered 30–45 min before PTZ (60 mg/kg, i.p.) or STR (3.5 mg/kg, i.p.) injection, and animals were directly observed for any signs of convulsion for a duration of 30 min. The observed scores as well as percent protection against generalized tonic-clonic seizure (GTCS) were graded and scaled according to the Racine scale (stage 0, no change in behavior; stage 1, stereotype mouthing, eye blinking, and/or mild facial clonus; stage 2, head nodding and/or severe facial clonus; stage 3, myoclonic jerk in forelimbs; stage 4, clonic convulsions in the forelimbs with rearing; stage 5, generalized colonic convulsions associated with loss of balance) to evaluate the protection provided by the respective test compound against seizures. The animals were divided into eighteen groups of seven rats (n = 7) and treated as follows.
(§2) (1) Control group injected with vehicle + PTZ (SAL group), (2) positive control group in which rats were injected with VPA (300 mg/kg) + PTZ (VPA group), and animals in the test groups (3)–(18) were systemically administered with test compounds 1–16 (10 mg/kg), respectively. An additional PTZ experiment was conducted using three different groups of seven rats (n = 7), the H3R ligand with the most promising protection in PTZ model was administered at doses of 2.5, 5, or 15 mg/kg, i.p. 30–45 min before the PTZ challenge. […] The same experimental procedure was followed in the STR-induced seizure model applying the reference drug VPA, which was used at a dose of 300 mg/kg, i.p. (Figure 3, Table 2).

Hepatoma HepG2 cell line = assay: Antiproliferative assay (MTS), HepG2; format: cell-based; details: 72 h incubation
Experimental: (§3) Human embryonic kidney (HEK)-293 cell line (ATCC CRL-1573) was kindly donated by Prof. Dr. […] (Pharmaceutical Institute, Pharmaceutical Chemistry I, University of Bonn). Hepatoma HepG2 (ATCC HB-8065) cell line was kindly donated by the Department of Pharmacological Screening, Jagiellonian University Medical College. The cell cultures' growth conditions in presence of H3R antagonist 4 were applied as described before. The cells' viability was assessed after 72 h of incubation with H3R antagonist and the following references: doxorubicin (Sigma-Aldrich) and carbonyl cyanide 3-chlorophenylhydrazone (CCCP) (Sigma-Aldrich). CellTiter 96® AQueous non-radioactive cell proliferation assay (MTS) was purchased from Promega® and added to each well in the volume of 20 μL. The cells were then incubated for 2-5 h. The microplate reader EnSpire (PerkinElmer Ltd., Waltham, MA, USA) was used to measure the absorbance at 490 nm.

[1] = Metabolic stability in rat liver microsomes; format: in vitro ADME; details: RLMs, MS ion fragment analysis, metabolite M-I
Experimental: Rat liver microsomes (RLMs) purchased form Sigma-Aldrich (St. Louis, MO, USA) were used for in vitro determination of compound 4’s metabolic stability. The NADPH regeneration system was purchased from Promega (Madison, WI, USA). All experiments were performed as described before. The reaction mixture was preincubated at 37 °C for 5 min, and then the reaction was started by adding 50 µL of NADPH regeneration system. The reaction was ended after 120 min by the addition of cold methanol (200 µL). The mixture was then centrifuged at 14,000 rpm for 15 min and the ultra-performance liquid chromatography–mass spectrometry (UPLC/MS) analysis of the supernatant was conducted. Ion fragment analyses were also performed for metabolic pathways’ determination.

hH4R = biological target: T1, hH4R (Homo sapiens, UniProt Q9H3N8); assay: H4R radioligand displacement assay, Sf9 cell membrane preparations; format: binding
T1 construct: expressed in transfected cells; host or cells: Sf9 insect cells (membrane preparations)
T1 sequence (Q9H3N8 whole entry): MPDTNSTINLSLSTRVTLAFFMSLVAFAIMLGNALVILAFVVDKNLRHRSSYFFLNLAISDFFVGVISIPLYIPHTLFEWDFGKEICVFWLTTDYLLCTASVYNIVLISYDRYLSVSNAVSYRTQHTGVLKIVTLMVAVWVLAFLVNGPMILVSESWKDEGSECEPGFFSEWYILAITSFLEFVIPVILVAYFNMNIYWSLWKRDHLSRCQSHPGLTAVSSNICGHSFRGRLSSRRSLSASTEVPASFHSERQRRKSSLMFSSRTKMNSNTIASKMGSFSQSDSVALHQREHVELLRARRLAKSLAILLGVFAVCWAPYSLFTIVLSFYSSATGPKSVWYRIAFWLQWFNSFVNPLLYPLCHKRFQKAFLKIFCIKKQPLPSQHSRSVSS
Experimental: H4R radioligand displacement assays were performed with Sf9 cell membrane preparations, expressing the hH4R, as described previously. Assays ran in triplicates with four appropriate concentrations of the test compound. Data were analyzed by GraphPad Prism 7, using the “one-site competition” equation.

STR-induced seizure = assay: Strychnine (STR)-induced seizure; format: in vivo, Wistar rats; details: 10 mg/kg i.p.
Experimental: as §1, §2

human H1 receptor = biological target: T2, human H1 receptor (Homo sapiens, UniProt P35367); assay: Radioligand binding, membranes from CHO-K1 cells
T2 construct: purchased PerkinElmer; host or cells: CHO-K1 cells, stably transfected (membranes)
T2 sequence (P35367 whole entry): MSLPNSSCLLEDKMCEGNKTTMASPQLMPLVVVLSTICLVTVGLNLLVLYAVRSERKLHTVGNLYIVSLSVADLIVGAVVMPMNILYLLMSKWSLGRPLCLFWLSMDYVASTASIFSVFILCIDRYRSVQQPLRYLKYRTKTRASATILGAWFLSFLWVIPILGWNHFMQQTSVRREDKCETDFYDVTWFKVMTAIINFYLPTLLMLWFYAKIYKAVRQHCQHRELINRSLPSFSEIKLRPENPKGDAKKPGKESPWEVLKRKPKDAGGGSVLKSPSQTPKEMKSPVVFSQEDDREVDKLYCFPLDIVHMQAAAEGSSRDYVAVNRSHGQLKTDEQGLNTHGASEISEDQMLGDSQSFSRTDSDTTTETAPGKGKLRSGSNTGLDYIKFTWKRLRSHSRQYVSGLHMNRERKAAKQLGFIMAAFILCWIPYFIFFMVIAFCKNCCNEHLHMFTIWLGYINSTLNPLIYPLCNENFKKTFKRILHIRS
Experimental: Radioligand binding was performed as previously described using membranes from CHO-K1 cells stably transfected with the human H1 receptor (PerkinElmer., Waltham, MA, USA). Data were fitted to a one-site curve-fitting equation with Prism 6 (GraphPad Software, city, state, country) and Ki values were estimated from the Cheng–Prusoff equation [44].

CYP2D6 = CYP2D6 (Homo sapiens, UniProt P10635); assay: Luminescent CYP2D6 P450-Glo assay
Chain of CYP2D6 (P10635 whole entry): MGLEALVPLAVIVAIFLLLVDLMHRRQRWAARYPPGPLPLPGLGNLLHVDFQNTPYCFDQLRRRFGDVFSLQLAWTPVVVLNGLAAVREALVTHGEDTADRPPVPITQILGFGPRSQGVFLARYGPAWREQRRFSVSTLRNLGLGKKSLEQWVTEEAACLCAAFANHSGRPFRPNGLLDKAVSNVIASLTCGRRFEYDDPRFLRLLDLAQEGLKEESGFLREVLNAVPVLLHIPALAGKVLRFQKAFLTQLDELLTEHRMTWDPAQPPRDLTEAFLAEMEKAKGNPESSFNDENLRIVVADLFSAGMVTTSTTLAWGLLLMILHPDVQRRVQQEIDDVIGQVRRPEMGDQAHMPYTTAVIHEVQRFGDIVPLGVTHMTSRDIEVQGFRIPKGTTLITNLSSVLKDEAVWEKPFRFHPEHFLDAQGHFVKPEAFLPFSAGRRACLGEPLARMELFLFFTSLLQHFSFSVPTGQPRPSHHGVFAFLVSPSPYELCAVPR
Experimental: The metabolic interactions of H3R antagonist 4 were determined by the luminescent P450-Glo™ 3A4 and 2D6 assays purchased from Promega®. All enzymatic reactions were performed according to the manufacturer protocols and as previously described. […] The luminescence was measured with a microplate reader EnSpire (PerkinElmer). The final concentration of H3R antagonist 4 was in the range of 0.1–25 µM, whereas reference inhibitory effects ranged from 0.01 µM to 10 µM. The IC50 values’ calculations were performed by GraphPad Prism™ software (version 5.01, San Diego, CA, USA).

MES-induced seizure = assay: Maximal electroshock (MES)-induced seizure; format: in vivo, Wistar rats
Description: As previously described, the seizures were induced in rats with a 50 Hz alternating current of 120 mA intensity. The current was applied through ear electrodes for 1 s. Protection against the spread of MES-induced seizure was defined as the abolition of the tonic hind limb extension (THLE) component of the seizure. For the first screening of protective effects of test compounds 1–16 in the MES-induced seizure model, the animals were divided into eighteen groups of seven rats (n = 7) as follows; group (1) control group injected with vehicle (SAL), group (2) positive control group in which rats were injected with PHT at a dose of 10 mg/kg (this being the minimal dose of PHT that protected animals against the spread of MES-induced seizures without mortality), and groups (3)–(18) animals in the experimental groups were administered H3R antagonists 1–16 at a dose of 10 mg/kg. In another MES experiment in three separate groups of six rats (n = 6), H3R antagonist 4 with the most promising protection in MES model was administered at doses of 2.5, 5, or 15 mg/kg, i.p. 30–45 min before the MES challenge.

HEK-293 cell line = assay: Antiproliferative assay (MTS), HEK-293; format: cell-based, human; details: 72 h incubation
Experimental: as §3

[2] = 10 mg/kg i.p. co-administered with RAMH 10 mg/kg i.p.

In the case of `O=C(O)C(=O)O.c1ccc2cc(OCCCCCCN3CCCCCC3)ccc2c1` [Ligand 4, 1-(6-(naphthalen-2-yloxy)hexyl)azepane hydrogen oxalate], the “PTZ-Induced Seizure % Protection against GTCS” value (PTZ-induced seizure; 2.5 mg/kg i.p.) is reported as 100%, the “PTZ-Induced Seizure Average Seizure Score” value (PTZ-induced seizure; 2.5 mg/kg i.p.) is reported as 2.29 ± 0.44 and the “PTZ-Induced Seizure % Protection against GTCS” value (PTZ-induced seizure; 5 mg/kg i.p.) is reported as 100%. The “PTZ-Induced Seizure Average Seizure Score” value (PTZ-induced seizure; 5 mg/kg i.p.) was 0.71 ± 0.31 **^,#, the “PTZ-Induced Seizure % Protection against GTCS” value (PTZ-induced seizure; 10 mg/kg i.p.) was 100% and the “PTZ-Induced Seizure Average Seizure Score” value (PTZ-induced seizure; 10 mg/kg i.p.) was 0.00 ± 0.00 ^&. The “PTZ-Induced Seizure % Protection against GTCS” value (PTZ-induced seizure; [2]) was 100%, the “PTZ-Induced Seizure Average Seizure Score” value (PTZ-induced seizure; [2]) was 0.29 ± 0.16 and the “protective effect in PTZ-induced seizure (in words)” value (PTZ-induced seizure; 10 mg/kg i.p., observed over 30 min, vs saline-treated group) was “full protective activities”. For the same compound, the “PTZ-Induced Seizure (protection class)” value (PTZ-induced seizure; 10 mg/kg i.p., PTZ 60 mg/kg) was “++ (high protective effect (THLE duration <1, seizure score 0))”, the “PTZ-Induced Seizure % Protection against GTCS” value (PTZ-induced seizure; 15 mg/kg i.p.) was 100% and the “PTZ-Induced Seizure Average Seizure Score” value (PTZ-induced seizure; 15 mg/kg i.p.) was 0.00 ± 0.00 ^&. For the same compound, the “concentration with significant decrease of HepG2 proliferation/viability” value (Hepatoma HepG2 cell line) was 100 µM, the main metabolic pathway [1] was “double-hydroxylation at the 6-n-hexylazepane moiety” and the Ki (hH4R) was > 10000 nM. The “STR-Induced Seizure % Protection against GTCS” value (STR-induced seizure) was 28.57%, the “STR-Induced Seizure Average Seizure Score” value (STR-induced seizure) was 4.57 ± 0.19 and the “protective effect in STR-induced seizure (in words)” value (STR-induced seizure; 30 min observation, vs saline-treated group) was “failed to provide any appreciable protection; also recorded: failed to exhibit appreciable protection”. For the same compound, the “STR-Induced Seizure (protection class)” value (STR-induced seizure; STR 3.5 mg/kg) was “−”, the Ki (human H1 receptor) was 1270 nM and the “fold lower affinity at hH1- and H4Rs than at H3R” value (human H1 receptor; selectivity toward H3Rs) was “at least 10 fold”. The IC50 (CYP2D6) was 670 nM, the “fold higher CYP2D6 IC50 compared with reference drug QD” value (CYP2D6) was 67 fold and the “MES-Induced Seizure Average THLE” value (MES-induced seizure; 2.5 mg/kg i.p.) was 5.83 ± 1.01 s. For the same compound, the “MES-Induced Seizure Average THLE (s)” value (MES-induced seizure; 5 mg/kg i.p.) was 2.50 ± 1.21 **^,# s, the “MES-Induced Seizure Average THLE (s)” value (MES-induced seizure; 10 mg/kg i.p.) was 0.57 ± 0.21 **^,$ s and the “MES-Induced Seizure Average THLE” value (MES-induced seizure; [2]) was 6.17 ± 0.59 s. The “protective effect in MES-induced seizure (in words)” value (MES-induced seizure; 10 mg/kg i.p., vs saline-treated group) was “most promising protective effect”, the “MES-Induced Seizure (protection class)” value (MES-induced seizure; 10 mg/kg i.p., 50 Hz, 120 mA, 1 s) was “++ (high protective effect (THLE duration <1, seizure score 0))” and the “MES-Induced Seizure Average THLE (s)” value (MES-induced seizure; 15 mg/kg i.p.) was 3.67 ± 0.94 **^,# s.

With `COc1cccc2c1C(=O)c1c(O)c3c(c(O)c1C2=O)C[C@@](O)(C(=O)CO)C[C@@H]3O[C@H]1C[C@H](N)[C@H](O)[C@H](C)O1` [DX, doxorubicin] the “concentration with significant decrease of HEK-293 proliferation/viability” value (HEK-293 cell line) was 1 µM.
